# In patent publication US5998462A, “5-alkyl indole compounds” (Allelix Biopharmaceuticals Inc., priority 1996, dated 1999):
# pEC50: −log10 of the molar value.
# Target: T1, 5-HT1D-like receptor (Oryctolagus cuniculus, UniProt P49144)
# T1 construct: Ring segments of the vein (4-5 mm in length) were cut and the endothelium gently removed; from tissue; host or cells: saphenous vein rings, endothelium removed, male New Zealand White rabbits
# Test: Agonist assay: contraction of rabbit isolated saphenous vein (5-HT1D-like receptor agonist activity)
# Design: species or system rabbit (New Zealand White)
# Conditions: not given
# Experimental: The saphenous veins from both the left and right side were cleaned of fat and connective tissue and placed in Krebs solution (118 mM NaCl, 11 mM glucose, 25 mM NaHCO3, 4.7 mM KCl, 2.5 mM CaCl2.2H2 O, 1.2 mM KH2 PO4, and 1.2 mM MgSO4.7H2 O. Ring segments of the vein (4-5 mm in length) were cut and the endothelium gently removed. The segments were mounted in 10 mL baths containing Krebs buffer and were constantly aerated with 95% oxygen/5% carbon dioxide and maintained at 37° C. and pH 7.4 in order to record the isometric tension. A resting tension of 2.5 g was applied and the tissues allowed to equilibrate for 90 minutes, with washing every 15-20 minutes. After the equilibrium period, the rings were depolarized by the addition of two aliquots of KCl (80 mM final concentration) separated by a 20 minute washing period. The tissues were then exposed to prazosin, idazoxan and indomethacin (all 1 μM final concentration) for 30 minutes in order to exclude the actions of α1 - and α2 -adrenergic receptors and prostaglandin receptors respectively. […] Responses were calculated as a percentage of the maximal contraction evoked by 80 mM KCl. Only one compound was tested per preparation.
# EC50 represents the concentration of the compound which causes 50% of the maximum contraction effected by it.
# T1 sequence (P49144 whole entry): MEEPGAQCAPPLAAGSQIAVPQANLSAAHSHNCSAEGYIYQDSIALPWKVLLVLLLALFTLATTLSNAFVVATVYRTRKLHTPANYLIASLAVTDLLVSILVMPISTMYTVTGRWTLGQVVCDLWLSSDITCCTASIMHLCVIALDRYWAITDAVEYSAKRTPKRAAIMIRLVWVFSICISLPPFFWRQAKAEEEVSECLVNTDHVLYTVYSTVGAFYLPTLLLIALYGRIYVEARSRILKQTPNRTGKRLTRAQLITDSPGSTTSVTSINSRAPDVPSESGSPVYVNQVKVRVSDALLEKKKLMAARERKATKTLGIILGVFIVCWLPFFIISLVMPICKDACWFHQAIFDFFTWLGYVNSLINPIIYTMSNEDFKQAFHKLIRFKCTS
row,Compound,pEC50
1,"Cc1ccc2[nH]cc(CCN3CC=CC3)c2c1 [Example 8d, 5-Methyl-3-(2-pyrrolinylethyl)-1H-indole]",5.54
2,"Cc1ccc2[nH]cc(C[C@H]3CCCN3C)c2c1 [Example 7e, (R)-3-[(N-Methylpyrrolidin-2-yl)methyl]-5-methyl-1H-indole]",7.00
3,"CCc1ccc2[nH]cc(C[C@H]3CCCN3C)c2c1 [Example 11b, (R)-5-Ethyl-3-[(N-methylpyrrolidin-2-yl)methyl]-1 H-indole]",7.82
4,"CC(C)c1ccc2[nH]cc(C[C@H]3CCCN3C)c2c1 [Example 7g, (R)-3-[(N-Methylpyrrolidin-2-yl)methyl]-5-isopropyl-1H-indole]",7.54
5,"CC(C)c1ccc2[nH]cc(CCN3CCCC3)c2c1 [Example 8a, 5-Isopropyl-3-(2-pyrrolidinylethyl)-1H-indole]",6.60
6,"Cc1ccc2[nH]cc(C[C@@H]3CCCN3C)c2c1 [Example 7h, (S)-3-[(N-Methylpyrrolidin-2-yl)methyl]-5-methyl-1H-indole]",5.74
7,"Cc1ccc2[nH]cc(CCN3CCCC3)c2c1 [Example 8c, 5-Methyl-3-(2-pyrrolidinylethyl)-1H-indole]",6.23
8,"CN1CCC[C@@H]1Cc1c[nH]c2ccc(C(C)(C)C)cc12 [Example 7f, (R)-3-[(N-Methylpyrrolidin-2-yl)methyl]-5-tert-butyl-1H-indole]",7.28
9,"Cc1ccc2[nH]cc(C[C@H]3CCCN3)c2c1 [Example 7j, (R)-5-Methyl-3-[(pyrrolidin-2-yl)methyl]-1H-indole]",6.08
10,"CC(C)(C)c1ccc2[nH]cc(CCN3CCCC3)c2c1 [Example 8b, 5-Tert-butyl-3-(2-pyrrolidinylethyl)-1H-indole]",5.92

# Same assay, conditions: rabbit isolated saphenous vein rings, 37° C., pH 7.4; prazosin, idazoxan and indomethacin 1 μM present; read-out: EC50 (concentration of the compound which causes 50% of the maximum contraction effected by it)
row,Compound,pEC50
1,"Cc1ccc2[nH]cc(C3CCN(C)C3)c2c1 (stereo not drawn) [Example 7i, 5-Methyl-3-(N-methylpyrrolidin-3-yl)-1H-indole]",6.33
2,"CCc1ccc2[nH]cc(C3CCN(C)C3)c2c1 (stereo not drawn) [Example 11c, 5-Ethyl-3-(N-methylpyrrolidin-3-yl)-1H-indole]",6.05
